From patent US6103709A (priority 1998, dated 2000)

Tests used:
[1] = tested on: chloride channels in ROS 17/2.8 cells; settings: 1 nM HL in the bath; 1α,25(OH)2 D3 5 nM or less; listed as 1β,25(OH)2 D3
Experimental: In each case, at least a 3-min period was allowed after the addition of the analog to the bath for currents to reach a stable amplitude value. […] Anion currents were isolated from inward Ba^2+ currents after blockade of Ca^2+ channels with 100 μM Cd^2+.

[2] = tested on: MAP-kinase p42^mapk in NB4 cells; experiment: MAP-kinase activation (p42mapk phosphorylation) in NB4 cells; type: cell-based, human
Experimental: In order to determine whether MAP-kinase phosphorylation is specific and is altered by 1α,25(OH)2 D3, the time-dependent effects of 1α,25(OH)2 D3 on p42^mapk phosphorylation was examined using human acute promyelocytic leukemia cells (NB4). In this study, the NB4 cells, cultured in 10% charcoal-stripped fetal calf serum (FCS) medium, were treated with 1α,25(OH)2 D3 at 10^-8 M for various time periods. Cells were then extracted and the phosphorylated MAP-kinase was immunoprecipitated with anti-phosphotyrosine antibody and further analyzed by Western blot using the antibodies against p42^mapk.
The lysate was further processed for anti-phosphotyrosine immunoprecipitation. […] After transferring the proteins to the PVDF membrane, the membrane was further incubated with primary anti-p42^mapk antibodies that were (+) or were not (-) pre-exposed to MAP-kinase peptide.
This example describes assays used for measurement of MAP-kinase activity in NB4 cells.
Cell culture of NB4 cells
The cell line is characterized by a translocation involving chromosomes 15 and 17, which is typical of the classical form of APL-M3 in the French-American-British [FAB] classification. NB4 cells were cultured in DMEM/F12 medium with 10% FCS at 5% CO2 balanced air and were routinely passaged as suspension cultures and only passages 8 to 20 were used for each assay.
Immunoprecipitation of Tyrosine-Phosphorylated Proteins
NB4 cells were cultured in 60-mm diameter dishes and treated with 1,25(OH)2 D3 or analogs in 4 ml of DMEM/F12 containing 10% charcoal-stripped FCS.
Insoluble material was removed in a microcentrifuge at 14,000 rpm for 10 min. Protein concentration was determined with a protein assay kit (Bio-Rad Lab, Hercules, Calif.). For immunoprecipitation, the supernatant was incubated with bead-conjugated monoclonal anti-phosphotyrosine antibody overnight at 4° C. The immunoprecipitates containing the tyrosine-phosphorylated proteins were washed four times with freshly-prepared RIPA buffer and further eluted with 2× Laemmli gel buffer.
At this point, the samples were either stored at -20° C. for further use or processed via Western blots. Equal loading of MAP-kinase protein was determined by running the Western blots using polyclonal anti-p42^mapk antibody. For this purpose, samples were aliquoted from each cell extract before immunoprecipitation.
SDS Gel Electrophoresis and Western blot
The membrane was further immunoblotted using a rabbit anti-p42^mapk polyclonal antibody overnight at 4° C. followed by incubation with secondary horseradish peroxidase-conjugated mouse anti-rabbit antibody for 1 hr at 25° C. The phosphorylated MAP-kinase bands were then visualized by enhanced chemiluminescence (ECL). A Ultrascan LX Laser Densitometer (LKB, Bromma, Sweden) scanned the density of the immuno-phosphoprotein bands. The results were normalized by protein loading and further plotted as percent of control of the band density.

[3] = tested on: intestinal Ca2+ transport in perfused chick duodena (transcaltachia); experiment: Transcaltachia assay (rapid stimulation of 45Ca2+ transport in perfused duodena); settings: 1α,25(OH)2 D3 = 100
Experimental: Duodenal loops from normal, vitamin D-replete chicks were lumenally perfused with ^45 Ca^2+ (5 uCi/ml of buffer). To establish basal transport rates, celiac artery of controls were perfused with control medium for the first 20 min. The duodena were then either re-exposed to control medium containing the vehicle ethanol (0.005%, final concentration) through the celiac artery, or vascularly perfused with 300 pM or 650 pM agonist analogs JM or JN or with 650 pM of a control reference compound 1α,25(OH)2 D3. The venous effluent was collected at 2 min intervals for liquid scintillation spectrophotometry of the ^45 Ca^2+. […] Values represent mean ±SEM for n=4 in each group.
The data shown in FIG. 13 are the mean ±SEM from 4-5 duodena. […] Open circles represent the negative control receiving no treatment with 1α,25(OH)2 D3 or analog. […] Data represent the ratio of treated to basal values ±SEM extracted from a time-course plot (as in panel A) at 32 minutes.
This example describes the assay used for testing rapid response transcaltachia described in J. Biol. Chem, 268: 13811-13819 (1993).
White Leghorn cockerels (Hyline International, Lakeview, Calif.) were obtained on the day of hatch and maintained on a vitamin D-supplemented diet (1.0% calcium and 1.0% phosphorus; O. H. Kruse Grain and Milling, Ontario, Calif.) for 5-6 weeks to prepare normal vitamin D3 -replete chicks for use in the transcaltachia studies.
Measurements of ^45 Ca^2+ transport were carried out in perfused chick duodena. Normal vitamin D-replete chicks weighing approximately 500 g were anesthetized with 0.3 ml per 100 g Chloropent (Fort Dodge, Iowa), and the duodenal loop was surgically exposed. The celiac vein and blood vessels branching off from the celiac artery were ligated before cannulation of the celiac artery itself, and vascular perfusion was immediately initiated. Both the celiac artery and vein of the duodena were perfused with modified Grey's balanced salt solution (GBSS) +0.9 mM Ca which was oxygenated with 95% O2 and 5% CO2. A basal transport rate was established by perfusion with control medium for 20 minutes after the intestinal lumen was filled with ^45 Ca^2+. The tissue was then exposed to 1α,25(OH)2 D3 or analogs or reexposed to control medium for an additional 40 minutes. The vascular perfusate was collected at 2 min intervals during the last 10 min of the basal and during the entire treatment period. Duplicate 100 μl aliquots were taken for determination of the ^45 Ca^2+ levels by liquid scintillation spectrometry.

C=C1/C(=C\C=C2/CCC[C@]3(C)[C@@H]([C@H](C)CCCC(C)(C)O)CC[C@@H]23)C[C@@H](O)C[C@H]1O [Analog HL, 1β,25-dihydroxyvitamin D3]
antagonism of 1α,25(OH)2 D3-stimulated chloride channel opening [1]: significantly reduced

CC1=C(/C=C\C2=CCC[C@]3(C)[C@@H]([C@H](C)CCCC(C)(C)O)CC[C@@H]23)C[C@@H](O)C[C@@H]1O [HF]
activation of MAP-kinase versus 1α,25(OH)2 D3 ([2]; 1 minute): more than 1α,25(OH)2 D3 | activation of MAP-kinase versus 1α,25(OH)2 D3 ([2]; 5 minute): only slightly less active

CC1=C(/C=C/C2=CCC[C@]3(C)[C@@H]([C@H](C)CCCC(C)(C)O)CC[C@@H]23)C[C@@H](O)C[C@@H]1O [JB]
Rapid Trans-Caltachia, relative to 1α,25(OH)2 D3 [3]: smaller than 5%
